Laboratory results reported in patent publication US20240279190A1, “COMPOUNDS FOR MODULATING PLATELET-TYPE 12-(S)-LIPOXYGENASE AND METHODS OF USE FOR SAME” (The Regents of The University of California, priority 2021, published 2024).
Residue numbers refer to the chain shown, from its start.

Key:
[1] = molecular target: T1, 12-LOX mutant L407G/A417I/V418M (Homo sapiens, UniProt P18054, A417I/L407G/V418M); assay: UV-Vis-based IC50 assay, L407G/A417I/V418M mutant; format: biochemical
T1 construct: 6xHis (N); made in house; pFastBac1 shuttle vector
T1 sequence (P18054 1-663 L407G/A417I/V418M): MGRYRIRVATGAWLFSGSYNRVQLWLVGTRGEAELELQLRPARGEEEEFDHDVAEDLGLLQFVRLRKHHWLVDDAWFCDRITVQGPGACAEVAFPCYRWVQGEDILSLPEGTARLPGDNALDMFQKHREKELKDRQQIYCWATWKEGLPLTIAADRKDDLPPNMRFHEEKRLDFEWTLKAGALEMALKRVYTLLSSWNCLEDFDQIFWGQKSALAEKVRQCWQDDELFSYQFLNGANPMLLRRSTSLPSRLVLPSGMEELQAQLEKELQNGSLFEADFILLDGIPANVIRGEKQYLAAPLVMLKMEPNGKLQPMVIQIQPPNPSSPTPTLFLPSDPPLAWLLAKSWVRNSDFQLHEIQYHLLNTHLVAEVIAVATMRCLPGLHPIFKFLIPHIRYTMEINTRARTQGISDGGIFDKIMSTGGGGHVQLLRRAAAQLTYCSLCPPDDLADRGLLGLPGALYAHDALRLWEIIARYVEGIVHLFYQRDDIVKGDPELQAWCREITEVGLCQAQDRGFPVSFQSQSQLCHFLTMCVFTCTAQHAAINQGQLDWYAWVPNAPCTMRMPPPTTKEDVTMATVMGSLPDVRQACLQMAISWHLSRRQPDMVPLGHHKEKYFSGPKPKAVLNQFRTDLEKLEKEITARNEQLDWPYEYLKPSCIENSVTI
From the text: (§1) Based on the ML355 binding mode predicted by the modeling, all residues within 5 Å of any atom of ML355 were selected for experimental mutagenesis. The selected residues were replaced with amino acids with either bulkier or smaller side chains in order to determine what specific interactions play a role in inhibitor binding. […] The numbering refers to the UniProt accession number P18054 sequence, with the N-terminal methionine assigned as amino acid number one. The primers for all mutants were designed using the online QuikChange Primer Design tool (http://www.genomics.agilent.com/primerDesignProgram.jsp) from Agilent Technologies (CA, USA). The mutations were introduced by using the QuikChange® II XL site-directed mutagenesis kit from Agilent, following the instructions in the protocol provided. […]
(§2) The wild type 12-LOX (wt-12-LOX) enzyme and its mutants were expressed as fusion proteins, with an N-terminal 6×His tag, and were affinity purified by nickel-iminodiacetic acid agarose using FPLC (Biorad).
(§3) The percent inhibition was determined by comparing the enzyme rates of the control (DMSO solvent) and the inhibitor sample by following the formation of the conjugated diene product at 234 nm (ε=25,000 M^−1cm^−1). […] The substrate concentration was quantitatively determined by allowing the enzymatic reaction to go to completion in the presence of soybean LOX-1. […]

[2] = molecular target: T2, 12-LOX mutant A417I/V418M (Homo sapiens, UniProt P18054, A417I/V418M); assay: UV-Vis-based IC50 assay, A417I/V418M mutant; format: biochemical
T2 construct: 6xHis (N); made in house; pFastBac1 shuttle vector
T2 sequence (P18054 1-663 A417I/V418M): T1 sequence (P18054 1-663 L407G/A417I/V418M) with G407L
From the text: as §1, §2, §3

COc1cccc(CNc2ccc(S(=O)(=O)Nc3nc4c(ccc5ccccc54)s3)cc2)c1O [Compound LOX-12-001, 4-((2-hydroxy-3-methoxybenzyl)amino)-N-(naphtho[1,2-d]thiazol-2-yl)benzenesulfonamide] showed an IC50 [1] greater than 150000 nM, an inhibition at 20 µM ([1]; 20 uM inhibitor, read-out: Percent inhibition at 20 uM inhibitor) of 10% and an IC50 ([2]; A417I/V418M) of 120 ± 40 nM. For the same molecule, the “fold decrease in potency (increase in IC50) compared to wt12-LOX” value ([2]; A417I/V418M vs wt12-LOX) was 2.4 fold.
